{
  "source": "patent US8957051B2",
  "about": "“Bicyclic 1, 2, 4-oxadiazoles derivatives as sphingosine-1 phosphate receptors modulators” (Allergan, Inc., priority 2012, dated 2015)",
  "data": [
    {"target": "T1, human S1P1 receptor (Homo sapiens, UniProt P21453)", "T1 construct": "expressed in transfected cells; membranes were used", "T1 sequence (P21453 whole entry)": "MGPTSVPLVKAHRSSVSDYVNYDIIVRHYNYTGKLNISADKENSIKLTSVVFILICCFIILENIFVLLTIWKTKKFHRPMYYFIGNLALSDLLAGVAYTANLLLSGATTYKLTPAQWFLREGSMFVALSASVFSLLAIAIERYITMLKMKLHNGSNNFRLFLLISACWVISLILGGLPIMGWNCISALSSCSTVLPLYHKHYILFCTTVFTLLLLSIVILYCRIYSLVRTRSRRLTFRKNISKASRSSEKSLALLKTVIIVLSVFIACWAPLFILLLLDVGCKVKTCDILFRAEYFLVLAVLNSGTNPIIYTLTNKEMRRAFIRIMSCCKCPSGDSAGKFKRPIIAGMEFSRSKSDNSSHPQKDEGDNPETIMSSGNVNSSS", "experiment": "GTP γ35S binding assay for S1P1 activity", "format": "biochemical", "conditions": "membranes of cells stably expressing S1P1 receptor, agonist potency", "method": "Compounds were synthesized and tested for S1P1 activity using the GTP γ^355 binding assay. These compounds may be assessed for their ability to activate or block activation of the human S1P1 receptor in cells stably expressing the S1P1 receptor.\nGTP γ^355 binding was measured in the medium containing (mM) HEPES 25, pH 7.4, MgCl2 10, NaCl 100, dithiothreitol 0.5, digitonin 0.003%, 0.2 nM GTP γ^355, and 5 μg membrane protein in a volume of 150 μl. Test compounds were included in the concentration range from 0.08 to 5,000 nM unless indicated otherwise. Membranes were incubated with 100 μM 5′-adenylylimidodiphosphate for 30 min, and subsequently with 10 μM GDP for 10 min on ice. Drug solutions and membrane were mixed, and then reactions were initiated by adding GTP γ^355 and continued for 30 min at 25° C. Reaction mixtures were filtered over Whatman GF/B filters under vacuum, and washed three times with 3 mL of ice-cold buffer (HEPES 25, pH7.4, MgCl2 10 and NaCl 100). Filters were dried and mixed with scintillant, and counted for ^35S activity using a β-counter. Agonist-induced GTP γ^355 binding was obtained by subtracting that in the absence of agonist. Binding data were analyzed using a non-linear regression method. In case of antagonist assay, the reaction mixture contained 10 nM […] in the presence of test antagonist at concentrations ranging from 0.08 to 5000 nM.", "units": {"EC50": "nM"}, "values": [
      {"smiles": "O=P(O)(O)CCCNCc1ccc(-c2noc(CCCCc3ccccc3)n2)c2cccnc12", "note": "[Compound 1, {3-[({5-[5-(4-Phenylbutyl)-1,2,4-oxadiazol-3-yl]quinolin-8-yl}methyl)amino]propyl}phosphonic acid]", "EC50": 3.52},
      {"smiles": "O=P(O)(O)CCCNCc1ccc(-c2noc(CCCc3ccccc3)n2)c2cccnc12", "note": "[Compound 2, {3-[({5-[5-(3-Phenylpropyl)-1,2,4-oxadiazol-3-yl]quinolin-8-yl}methyl)amino]propyl}phosphonic acid]", "EC50": 9.87},
      {"smiles": "O=P(O)(O)CCCNCc1ccc(-c2noc(CCCCCc3ccccc3)n2)c2cccnc12", "note": "[Compound 3, {3-[({5-[5-(5-Phenylpentyl)-1,2,4-oxadiazol-3-yl]quinolin-8-yl}methyl)amino]propyl}phosphonic acid]", "EC50": 46.7},
      {"smiles": "O=P(O)(O)CCCNCc1ccc(-c2noc(CCCCc3ccccc3)n2)c2ccccc12", "note": "[Compound 4, {3-[({4-[5-(4-Phenylbutyl)-1,2,4-oxadiazol-3-yl]-1-naphthyl}methyl)amino]propyl}phosphonic acid]", "EC50": 24.9},
      {"smiles": "O=P(O)(O)OCCNCc1ccc(-c2noc(CCCCc3ccccc3)n2)c2ccccc12", "note": "[Compound 6, 2-[({4-[5-(4-Phenylbutyl)-1,2,4-oxadiazol-3-yl]-1-naphthyl}methyl)amino]ethyl dihydrogen phosphate]", "EC50": 22.4}
    ]}
  ]
}
